Measurements from patent US5041542A, “Substituted pyrimido[5,4-d]pyrimidine nucleosides” (Nucleic Acid Research Institute, priority 1988, dated 1991).
Values after ≈ are worked out from the molar mass of the structure shown. Read-outs that look alike come from different tables or passages of the source.

Experiments:
physchem = details: water
L1210 cells = experiment: In vitro cytotoxicity, L1210; assay type: cell-based, murine; details: Mus musculus, L1210, 72 h; 3 days, 37° C., MTT; read-out: Antitumor (ID50) L1210
Procedure: (§1) ^b (ID50) inhibitory dose is the μM concentration of the
(§2) In vitro cytotoxicity analysis was performed by using the following cell lines: L1210 (a murine leukemia), WI-L2 (a human B-lymphoblast), and LoVo/L (a human colon carcinoma). Cells were grown in RPMI 1640 medium supplemented with 10% fetal bovine serum, 20 mM HEPES, pH 7.4, and 2 mM glutamine. The cytotoxicity determinations were carried out in 96-well microtiter dishes containing a starting number of 5-10×10^3 cells per well and 0.1-100 μM concentrations of the compounds in triplicate wells. L1210 and WI-L2 were incubated with the compounds at 37° C. for 3 days, while Lovo/L was incubated for 5 days. After this time period, 25 μL of 4 mg/mL 3-(4,5-dimethylthiazol-2-yl)-2,5-diphenyltetrazolium bromide was added to each well and incubation was continued for 2 to 5 h. The formazan product was dissolved in isopropanol containing 0.04M HCl and the absorbance was determined with a microtiter plate reader. The absorbance was proportional to the number of cells.

[1] = system: herpes simplex virus type 2 (MS strain); experiment: In vitro antiviral activity, herpes simplex virus type 2 (virus rating); assay type: cell-based; details: Vero cells; VR >1.0 marked, 0.5 to 0.9 moderate, <0.5 weak or no activity
[2] = system: pyrimidine (CTP + UTP) and purine (ATP + GTP) nucleoside triphosphates; experiment: 14C-bicarbonate incorporation into acid soluble pyrimidine and purine nucleoside triphosphates; assay type: cell-based
Text: Comparative effect of compounds on ^14 C-bicarbonate
incorporation into acid soluble pyrimidine (PyrTP,
CTP + UTP) and purine (PurTP, ATP + GTP) nucleoside

LoVo/L cells = experiment: In vitro cytotoxicity, LoVo/L; assay type: cell-based; details: Homo sapiens, 120 h, 5 days, 37° C., MTT, read-out: Antitumor (ID50) LoVo/L
Procedure: as §1, §2

[3] = system: vaccinia virus (Elstree strain); assay type: cell-based; details: HeLa cells; VR >1.0 marked, 0.5 to 0.9 moderate, <0.5 weak or no activity
[4] = Lethal toxicity in treated mice
L1210 = experiment: In vivo antitumor activity against L1210 in BDF1 mice
Procedure: Compounds 8, 11, 14 and 17 were comparatively evaluated in vivo for efficacy against L1210 in BDF1 mice.
Mice were inoculated i.p. with 1×10^6 L1210 cells 24 hr before qd, day 1, i.p. drug delivery. Drugs were solubilized in water and delivered at the rate of 0.01 ml/g mouse weight. Then control mice/drug were injected i.p. with equivalent volumes of a 0.9% solution of NaCl, the means and standard deviations reflecting the postinoculation life spans of these mice ranged from 6.30±0.48 to 6.60±0.97 days.

[5] = system: WI-L2 cells deficient in adenosine kinase; experiment: Cytotoxicity to WI-L2 cells deficient in adenosine kinase activity; assay type: cell-based, human; details: 100 μM
Procedure: (§3) Compounds of the invention were also tested for certain biochemical properties. Compounds of the invention were studied for their effect on de novo purine biosynthesis by observing inhibition of incorporation of [^14 C]formate into the acid-soluble fraction of WI-L2 cells (see Table 3). […] However, 8 and 14 (100 μM) were not cytotoxic to WI-L2 cells deficient in adenosine kinase activity.
(§4) A normal lymphoblast phenotype B cell line, WI-L2 was used. The enzyme-deficient cell lines used in vitro are: HPRT-, a hypoxanthine-guanine phosphorbosyl transferase (EC 2.4.2.8)deficient line and AK-, an adenosine kinase (EC 2.7.1.20)deficient line. Cells were cultured in RPMI 1640 medium containing 5% dialyzed fetal bovine serum, 20 mM Na HEPES, pH 7.5 and 2 mM glutamine and maintained in log phase growth between 0.5 and 12×10^5 cells/mL. The mutant cell lines were periodically reselected by treatment with 6-thioguanine (HPRT-) or tubercidin (AK-).

adenosine deaminase = experiment: in vitro; assay type: biochemical; details: compared with ARPP
Procedure: (§5) Samples were analyzed directly on reverse-phase HPLC. Enzymatic conversions were distinguished from hydrolysis by treating a parallel sample with EHNA to inhibit the deaminase activity.

in vitro = assay type: biochemical; details: adenosine deaminase, pH 7.5
Procedure: as §5

[6] = system: de novo purine biosynthesis in WI-L2 cells; experiment: Inhibition of de novo purine biosynthesis ([14C]formate incorporation); assay type: cell-based, human; details: for minimal effective concentration: active at concentrations as low as, read-out: lowest active concentration, de novo purine biosynthesis; for activity at 0.25 µM / activity at 2.5 µM: pre-incubation 8 h; for inhibitory activity on de novo purine biosynthesis (ranking): WI-L2 cells
Procedure: as §3, §4
. Inhibition of de novo purine biosynthesis: WI-L2 or adenosine kinase-deficient cells were preincubated at 37° C. with drug for various time periods prior to labeling with [^14 C]formate. Enzyme Assays: Adenosine kinase inhibition studies were accomplished by the filter binding assay method. Inhibition studies were done at 37° C. with an assay mixture containing 4 mM ATP, 1.5 mM MgCl2, 5 or 10 μM [8-^14 C] adenosine (50 mCi/mmol) and 100 mM Tris-maleate, pH 5.5. To prevent the enzymatic breakdown of adenosine, erythro-9-(2-hydroxy-3-nonyl)adenine (EHNA) was added to the cell-free WI-L2 lysate to give 5 μM final assay concentration. The assay was started by the addition of protein. The amount of enzyme, time of assay and sampling volume were adjusted to give acceptable conversion of [8-^14 C] adenosine to [8-^14 C]AMP. Each DE-81 filter was spotted with a constant sampling volume and immersed in H 2 O (4 L) to terminate the reaction. Filters were washed three times with H2 O (4 L) and once with EtOH (100 mL). Dry filters were placed in scintillation vials and radioactivity was counted with 10 mL toluene-based scintillation cocktail.
De novo purine biosynthesis was measured by the incorporation of ^14 C-formate into cellular purine nucleotides or excreted purines after pre-incubation with compound.

WI-L2 cells = experiment: In vitro cytotoxicity, WI-L2; assay type: cell-based; details: Homo sapiens, WIL2, 72 h; 3 days, 37° C., MTT; read-out: Antitumor (ID50) WI-L2
Procedure: as §1, §2

[7] = system: parainfluenza 3 (C243 strain); experiment: In vitro antiviral activity, parainfluenza 3 (virus rating); assay type: cell-based; details: Vero cells; VR >1.0 marked, 0.5 to 0.9 moderate, <0.5 weak or no activity
[8] = delivered at 0.01 ml/g mouse weight
[9] = Homo sapiens, WIL2, cell, read-out: de novo purine biosynthesis, % of control, cell, 0.25 μM
[10] = Homo sapiens, WIL2, cell, read-out: de novo purine biosynthesis, % of control, cell, 2.5 μM
[11] = Homo sapiens, WIL2, media (excreted purines), read-out: de novo purine biosynthesis, % of control, media, 0.25 μM
[12] = Homo sapiens, WIL2, media (excreted purines), read-out: de novo purine biosynthesis, % of control, media, 2.5 μM

Structure (SMILES)	solubility (physchem) [mg/mL]	IC50 (L1210 cells) [nM]	Antiviral (VR) HSV2 [1] [VR]	IC50 (LoVo/L cells) [nM]	Antiviral (VR) VV [3] [VR]	lethal toxicity at maximum soluble dosage ([4]; i.p.)	cytotoxicity to adenosine kinase-deficient WI-L2 cells [5]	substrate activity for adenosine deaminase (adenosine deaminase)	effect on de novo purine biosynthesis [6]	minimal effective concentration ([6]; Homo sapiens, WIL2) [µM]	activity at 0.25 µM [6, 9] [%]	activity at 2.5 µM [6, 10] [%]	activity at 0.25 µM [6, 11] [%]	activity at 2.5 µM [6, 12] [%]	inhibitory activity on de novo purine biosynthesis (ranking) [6]	IC50 (WI-L2 cells) [nM]	Antiviral (VR) PI3 [7] [VR]	Maximum watersoluble dosage [8] [mg/kg/inj.]	also measured
Nc1ncnc2c(N[C@@H]3O[C@H](CO)[C@@H](O)[C@H]3O)ncnc12 [Compound 8, 4-Amino-8-(β-D-ribofuranosylamino)pyrimido[5,4-d]pyrimidine, reference compound]	17.3 (≈ 58.8 mM)	800	0.8	7000	1.3	Neither drug was lethally toxic at its maximum soluble dosage	not cytotoxic	preferential disappearance of the β-anomer	inhibit an early step in de novo purine biosynthesis	0.25	79.5	29.9	71.9	54.6	greatest inhibitory activity	200	0.7	173	CAA (carbamyl aspartate), 1.5 μM ([2]; 1.5 μM): 1608 cpm/10^6 cells; PurTP, 1.5 μM ([2]; 1.5 μM, zero = undetectable): 0 cpm/10^6 cells; PyrTP, 1.5 μM ([2]; 1.5 μM, zero = undetectable): 0 cpm/10^6 cells; activity at 1.5 µM ([2]; 1.5 μM, zero = undetectable, read-out: PurTP, % control, 1.5 μM): 0%; activity at 1.5 µM ([2]; read-out: PydTP, % control, 1.5 μM): 0%; Postinoculation Lifespan (% T/C), 173 mg/kg/inj. (L1210; 173 mg/kg/inj. i.p., qd, day 1): 162 % T/C; T/C (L1210; qd, day 1, at maximum soluble dosage): 162; metabolised at 5 min, 1000 µM (in vitro; 5 min, β-anomer, read-out: conversion of β-anomer by adenosine deaminase in 5 min): 60%
COc1ncnc2c(N[C@@H]3O[C@H](CO)[C@@H](O)[C@H]3O)ncnc12 [Compound 14, 4-Methoxy-8-(β-D-ribofuranosylamino)pyrimido[5,4-d]pyrimidine]	17.3 (≈ 55.9 mM)	40	0.2	280	1.0	lethally toxic at that level for all treated mice	not cytotoxic	less active as a substrate for adenosine deaminase	inhibit an early step in de novo purine biosynthesis	0.25	41.9	2.7	63	41.8	greatest inhibitory activity	60	0.7	173	CAA (carbamyl aspartate), 5.0 μM ([2]; 5.0 μM): 1322 cpm/10^6 cells; PurTP, 5.0 μM ([2]; 5.0 μM, zero = undetectable): 0 cpm/10^6 cells; PyrTP, 5.0 μM ([2]; 5.0 μM, zero = undetectable): 0 cpm/10^6 cells; activity at 5 µM ([2]; 5.0 μM, zero = undetectable, read-out: PurTP, % control, 5.0 μM): 0%; activity at 5 µM ([2]; 5.0 μM, zero = undetectable, read-out: PydTP, % control, 5.0 μM): 0%; maximum non-lethal concentration ([4]; i.p., qd day 1): 6.2 mg/mL; death of treated mice at 10.4 mg/mL ([4]; made up at 10.4 mg/mL): 1/6; T/C, 62 mg/kg (L1210; 62 mg/kg, qd day 1): 182; Postinoculation Lifespan (% T/C), 62 mg/kg/inj. (L1210; 62 mg/kg/inj. i.p., qd, day 1): 182 % T/C; metabolised at 18 h, 1000 µM (in vitro; 18 h, same conditions as for ARPP, read-out: deaminated by adenosine deaminase in 18 h): < 10%; activity at 25 µM ([6]; Homo sapiens, WIL2, cell, 25 μM, pre-incubation 4 h, read-out: de novo purine biosynthesis, % of control, cell, 25 μM): 4.3%
